Reference: ChEMBL document CHEMBL5316308, “BET-HDAC Dual Inhibitors for Combinational Treatment of Breast Cancer and Concurrent Candidiasis” (J Med Chem, 2023)
Calls of active or inactive are those of the source. The calls are words filed in the database; no cut-off is given here.

Columns and labels:
[1] = target: Histone deacetylase 1 (Homo sapiens, UniProt Q13547); experiment: Inhibition of full-length recombinant human HDAC1 (1 to 482 residues) expressed in baculovirus infected insect cells using Ac-Leu-Gly-Lys(Ac)-AMC as substrate incubated for 30 mins by fluorescence based assay; parameters: species or system Insect cell
[2] = target: T1, Bromodomain-containing protein 4 (Homo sapiens, UniProt O60885); experiment: Inhibition of recombinant BRD4 (unknown origin) incubated for 120 mins by TR-FRET assay
[3] = target: T1, Bromodomain-containing protein 4; experiment: Inhibition of recombinant BRD4 (unknown origin) incubated for 120 mins by TR-FRET assay relative to control; parameters: concentration or dose not given beside the values
[4] = test system: K562; experiment: Antiproliferative activity against human K562 cells assessed as cell growth inhibition incubated for 24 hrs by CCK-8 assay; type: functional, cell-based; details: K562, 24 h
[5] = test system: HEL; experiment: Antiproliferative activity against human HEL cells assessed as cell growth inhibition incubated for 24 hrs by CCK-8 assay; type: functional, cell-based
[6] = test system: HL-60; experiment: Antiproliferative activity against human HL-60 cells assessed as cell growth inhibition incubated for 24 hrs by CCK-8 assay; type: functional, cell-based; details: HL-60, 24 h
[7] = test system: MDA-MB-231; experiment: Antiproliferative activity against human MDA-MB-231 cells assessed as cell growth inhibition incubated for 24 hrs by CCK-8 assay; type: functional, cell-based; details: MDA-MB-231, 24 h
[8] = test system: Candida albicans; type: functional, 0304103; details: time 48 hrs
Description: Synergistic antifungal activity against azole-resistant Candida albicans 0304103 assessed as fractional inhibitory concentration index measured after 48 hrs in presence of FLC by CLSI based micro-dilution broth method

[9] = target: Histone deacetylase 2 (Homo sapiens, UniProt Q92769); experiment: Inhibition of C-terminal GST-tagged full-length recombinant human HDAC2 expressed in baculovirus infected Sf9 insect cells using Ac-Leu-Gly-Lys(Ac)-AMC as substrate incubated for 30 mins by fluorescence based assay; type: cell-based
[10] = target: Histone deacetylase 3 (Homo sapiens, UniProt O15379); experiment: Inhibition of His-tagged recombinant human HDAC3 expressed in baculovirus infected insect cells using Ac-Leu-Gly-Lys(Ac)-AMC as substrate incubated for 30 mins by fluorescence based assay; parameters: species or system Insect cell
[11] = target: T2, Protein deacetylase HDAC6 (Homo sapiens, UniProt Q9UBN7); experiment: Inhibition of N-terminal GST-tagged recombinant human HDAC6 expressed in baculovirus infected Sf9 insect cells using Ac-Leu-Gly-Lys(Ac)-AMC as substrate incubated for 30 mins by fluorescence based assay
T2 sequence (Q9UBN7 whole entry): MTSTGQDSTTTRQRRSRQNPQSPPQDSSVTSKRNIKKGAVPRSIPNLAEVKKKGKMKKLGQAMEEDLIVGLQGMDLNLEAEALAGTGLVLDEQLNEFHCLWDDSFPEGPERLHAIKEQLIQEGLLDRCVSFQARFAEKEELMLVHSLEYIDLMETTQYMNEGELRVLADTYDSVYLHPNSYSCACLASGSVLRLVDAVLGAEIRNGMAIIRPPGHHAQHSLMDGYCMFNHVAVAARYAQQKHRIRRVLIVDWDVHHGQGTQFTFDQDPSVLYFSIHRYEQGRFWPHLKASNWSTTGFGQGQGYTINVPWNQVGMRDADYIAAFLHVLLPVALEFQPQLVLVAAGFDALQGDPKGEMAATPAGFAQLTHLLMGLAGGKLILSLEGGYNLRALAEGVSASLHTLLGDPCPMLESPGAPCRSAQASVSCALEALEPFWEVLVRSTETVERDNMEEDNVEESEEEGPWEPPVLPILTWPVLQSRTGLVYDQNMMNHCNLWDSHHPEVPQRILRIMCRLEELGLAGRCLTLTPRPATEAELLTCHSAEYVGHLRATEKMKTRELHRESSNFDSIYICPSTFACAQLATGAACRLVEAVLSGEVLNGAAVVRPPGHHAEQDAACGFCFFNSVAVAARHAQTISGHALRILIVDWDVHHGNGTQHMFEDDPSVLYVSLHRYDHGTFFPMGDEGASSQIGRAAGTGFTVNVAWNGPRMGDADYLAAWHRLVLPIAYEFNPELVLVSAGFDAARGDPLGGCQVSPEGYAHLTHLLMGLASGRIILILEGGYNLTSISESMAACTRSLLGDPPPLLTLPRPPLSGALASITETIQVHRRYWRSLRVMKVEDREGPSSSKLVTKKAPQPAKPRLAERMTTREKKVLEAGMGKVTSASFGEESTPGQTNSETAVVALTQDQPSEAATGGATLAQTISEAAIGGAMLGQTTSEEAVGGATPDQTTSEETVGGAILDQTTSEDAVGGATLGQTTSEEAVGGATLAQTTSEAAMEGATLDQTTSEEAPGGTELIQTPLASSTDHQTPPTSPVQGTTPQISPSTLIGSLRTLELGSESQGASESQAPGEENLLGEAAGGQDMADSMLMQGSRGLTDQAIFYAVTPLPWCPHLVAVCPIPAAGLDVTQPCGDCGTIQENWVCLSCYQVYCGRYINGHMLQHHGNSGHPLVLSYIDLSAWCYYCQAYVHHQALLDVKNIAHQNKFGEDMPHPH

[12] = target: Bromodomain testis-specific protein (Homo sapiens, UniProt Q58F21); experiment: Inhibition of recombinant BRDT BD1 (unknown origin) incubated for 120 mins by TR-FRET assay
[13] = test system: MDA-MB-231; experiment: Induction of apoptosis in human MDA-MB-231 cells incubated for 48 hrs by Annexin V-FITC/PI staining based flow cytometry; type: functional, cell-based; details: dose 2.5-10 µM
[14] = test system: Candida albicans; experiment: Synergistic antifungal activity against azole-resistant Candida albicans 0304103 assessed as fungal growth inhibition at 32 ug/ml measured upto 24 hrs in presence of 1 to 4 ug/ml FLC by absorbance based assay; type: functional, organism-based; details: dose 32.0 µg/ml
[15] = Metabolic stability in ICR mouse liver microsome assessed as half life; type: ADME; details: liver microsomes
[16] = Metabolic stability in ICR mouse liver microsome assessed as clearance; type: ADME; details: liver microsomes, read-out: CLH
[17] = test system: MDA-MB-231; experiment: Antitumor activity against human MDA-MB-231 cells xenografted in Balb/c nude mouse assessed as tumor growth inhibition at 10 mg/kg, ip qd for 21 consecutive days relative to control; type: functional; details: MDA-MB-231, 480 h, time 20 day, read-out: TGI
[18] = test system: Candida albicans; experiment: Synergistic antifungal activity against Candida albicans 0304103 infected in ICR mouse assessed as decrease in kidney fungal load at 10 to 20 mg/kg, ip for 5 consecutive days; type: functional, organism-based; details: dose 10-20 mg/kg, time 5.0 day

Chain of Histone deacetylase 3 (O15379 whole entry): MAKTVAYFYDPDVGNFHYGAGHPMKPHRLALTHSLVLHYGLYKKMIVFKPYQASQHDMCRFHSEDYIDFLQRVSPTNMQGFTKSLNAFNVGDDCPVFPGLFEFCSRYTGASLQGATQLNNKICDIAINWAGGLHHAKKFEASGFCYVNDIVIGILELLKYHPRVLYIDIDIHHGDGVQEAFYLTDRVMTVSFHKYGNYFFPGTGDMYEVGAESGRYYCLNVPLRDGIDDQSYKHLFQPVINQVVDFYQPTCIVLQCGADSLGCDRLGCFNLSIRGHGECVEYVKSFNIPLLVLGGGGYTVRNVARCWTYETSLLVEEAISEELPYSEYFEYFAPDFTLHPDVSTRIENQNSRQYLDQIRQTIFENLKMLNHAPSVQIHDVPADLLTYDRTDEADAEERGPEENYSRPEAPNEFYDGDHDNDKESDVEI
Chain of Histone deacetylase 1 (Q13547 whole entry, the tested form may be a part): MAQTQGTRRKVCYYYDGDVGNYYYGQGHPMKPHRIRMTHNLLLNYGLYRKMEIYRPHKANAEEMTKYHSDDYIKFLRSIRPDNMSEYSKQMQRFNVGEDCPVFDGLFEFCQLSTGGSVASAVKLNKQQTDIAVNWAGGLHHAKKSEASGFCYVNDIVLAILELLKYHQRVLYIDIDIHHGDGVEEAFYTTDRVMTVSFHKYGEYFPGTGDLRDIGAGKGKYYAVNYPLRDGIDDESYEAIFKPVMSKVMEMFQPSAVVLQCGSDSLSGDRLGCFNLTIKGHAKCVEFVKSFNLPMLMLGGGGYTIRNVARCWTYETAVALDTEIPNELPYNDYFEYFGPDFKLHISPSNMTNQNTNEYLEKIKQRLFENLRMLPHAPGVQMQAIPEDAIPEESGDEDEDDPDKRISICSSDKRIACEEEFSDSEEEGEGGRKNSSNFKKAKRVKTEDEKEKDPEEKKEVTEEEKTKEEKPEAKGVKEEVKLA
Chain of Histone deacetylase 2 (Q92769 whole entry): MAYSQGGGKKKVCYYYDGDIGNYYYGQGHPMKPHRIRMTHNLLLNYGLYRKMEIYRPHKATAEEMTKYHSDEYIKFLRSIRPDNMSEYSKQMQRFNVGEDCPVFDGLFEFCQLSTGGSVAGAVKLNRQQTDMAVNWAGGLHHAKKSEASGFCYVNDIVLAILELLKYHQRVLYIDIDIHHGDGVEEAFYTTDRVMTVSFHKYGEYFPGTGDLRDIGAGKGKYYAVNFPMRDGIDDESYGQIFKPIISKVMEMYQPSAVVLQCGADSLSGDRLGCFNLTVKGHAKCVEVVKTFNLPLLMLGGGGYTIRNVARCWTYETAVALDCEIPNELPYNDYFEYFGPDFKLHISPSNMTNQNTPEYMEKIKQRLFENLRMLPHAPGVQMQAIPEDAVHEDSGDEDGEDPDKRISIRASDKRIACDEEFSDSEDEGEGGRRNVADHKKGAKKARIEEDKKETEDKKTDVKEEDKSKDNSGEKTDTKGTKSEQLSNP

SMILES	IC50 [1] [nM]	IC50 [2] [nM]	inhibition [3] [%]	IC50 [4] [nM]	IC50 [5] [nM]	IC50 [6] [nM]	IC50 [7] [nM]	fractional inhibitory concentration index (FICI) [8]	IC50 [9] [nM]	IC50 [10] [nM]	IC50 [11] [nM]	IC50 [12] [nM]	Activity [13]	Activity [14]	half-life [15] [min]	CLint scaled [16] [mL/min/kg]	inhibition in vivo at 10 mg/kg [17] [%]	Activity [18]
COc1cc2c(cc1-c1c(C)noc1C)[nH]c1ncnc(NCCCCCCC(=O)NO)c12	10	35	93.7	2500	3900	1200	500	0.07	152	161	9	221	Dose-Dependent Effect	Active	53.3	103	64.9	Active
COc1cc2c(cc1-c1c(C)noc1C)[nH]c1nc(C)nc(NCCCCCCC(=O)NO)c12	19	63	91.7	2500	900	1900	1000	0.25	85	213	14	1110	Dose-Dependent Effect	Active	19.3	285	67.9	Active
